This passage reports MIC50 results from article PMC7369900 (International Journal of Molecular Sciences, 2020).

≈ marks a conversion by molar mass, not a printed value.

The assay has as its system C. albicans Gu5.

Turning to `CC[C@H](C)[C@H](NC(=O)[C@H](CCCCN)NC(=O)[C@H](CCCCN)NC(=O)[C@H](C)NC(=O)[C@H](CC(C)C)NC(=O)[C@H](C)NC(=O)[C@H](C)NC(=O)[C@H](CC(C)C)NC(=O)[C@H](C)NC(=O)[C@H](CCCCN)NC(=O)[C@H](CC(C)C)NC(=O)[C@H](CC(N)=O)NC(=O)[C@@H](NC(=O)[C@H](CCCCN)NC(=O)CNC(=O)[C@H](CC(C)C)NC(=O)[C@H](CC(C)C)NC(=O)[C@H](Cc1ccc(O)cc1)NC(=O)CNC(=O)[C@H](C)NC(=O)CN1CCN(c2cc3c(cc2F)c(=O)c(C(=O)O)cn3C2CC2)CC1)[C@@H](C)CC)C(=O)N[C@@H](CC(C)C)C(N)=O` [Compound 1, CIP-CH2CO-TP10-NH2], the MIC50 (commonly an inhibitory concentration at the 50% level, which refers to growth in some studies and to a panel of isolates in others) stood at 50 µM (≈ 128 µg/mL).

Molecule `CC[C@H](C)[C@H](NC(=O)[C@H](CCCCN)NC(=O)[C@H](CCCCN)NC(=O)[C@H](C)NC(=O)[C@H](CC(C)C)NC(=O)[C@H](C)NC(=O)[C@H](C)NC(=O)[C@H](CC(C)C)NC(=O)[C@H](C)NC(=O)[C@H](CCCCN)NC(=O)[C@H](CC(C)C)NC(=O)[C@H](CC(N)=O)NC(=O)[C@@H](NC(=O)[C@H](CCCCN)NC(=O)CNC(=O)[C@H](CC(C)C)NC(=O)[C@H](CC(C)C)NC(=O)[C@H](Cc1ccc(O)cc1)NC(=O)CNC(=O)[C@H](C)NC(=O)c1cn(C2CC2)c2cc(N3CCNCC3)c(F)cc2c1=O)[C@@H](C)CC)C(=O)N[C@@H](CC(C)C)C(N)=O` [Compound 2, CIP-TP10-NH2] gave an MIC50 of 25 µM (≈ 62.4 µg/mL).

`CC[C@H](C)[C@H](NC(=O)[C@H](CCCCN)NC(=O)[C@H](CCCCN)NC(=O)[C@H](C)NC(=O)[C@H](CC(C)C)NC(=O)[C@H](C)NC(=O)[C@H](C)NC(=O)[C@H](CC(C)C)NC(=O)[C@H](C)NC(=O)[C@H](CCCCN)NC(=O)[C@H](CC(C)C)NC(=O)[C@H](CC(N)=O)NC(=O)[C@@H](NC(=O)[C@H](CCCCN)NC(=O)CNC(=O)[C@H](CC(C)C)NC(=O)[C@H](CC(C)C)NC(=O)[C@H](Cc1ccc(O)cc1)NC(=O)CNC(=O)[C@H](C)NC(=O)CCSSCCC(=O)N1CCN(c2cc3c(cc2F)c(=O)c(C(=O)O)cn3C2CC2)CC1)[C@@H](C)CC)C(=O)N[C@@H](CC(C)C)C(N)=O` [Compound 3, CIP-S-S-TP10-NH2] came in with an MIC50 of 12.5 µM (≈ 33.6 µg/mL).

The molecule `CC[C@H](C)[C@H](NC(=O)[C@H](CCCCN)NC(=O)[C@H](CCCCN)NC(=O)[C@H](C)NC(=O)[C@H](CC(C)C)NC(=O)[C@H](C)NC(=O)[C@H](C)NC(=O)[C@H](CC(C)C)NC(=O)[C@H](C)NC(=O)[C@H](CCCCN)NC(=O)[C@H](CC(C)C)NC(=O)[C@H](CC(N)=O)NC(=O)[C@@H](NC(=O)[C@H](CCCCN)NC(=O)CNC(=O)[C@H](CC(C)C)NC(=O)[C@H](CC(C)C)NC(=O)[C@H](Cc1ccc(O)cc1)NC(=O)CNC(=O)[C@H](C)NC(=O)c1cn2c3c(c(N4CCN(C)CC4)c(F)cc3c1=O)OC[C@@H]2C)[C@@H](C)CC)C(=O)N[C@@H](CC(C)C)C(N)=O` [Compound 4, LVX-TP10-NH2] came in with an MIC50 of 25 µM (≈ 63.1 µg/mL).

In turn, `CC[C@H](C)[C@H](NC(=O)[C@H](CCCCN)NC(=O)[C@H](CCCCN)NC(=O)[C@H](C)NC(=O)[C@H](CC(C)C)NC(=O)[C@H](C)NC(=O)[C@H](C)NC(=O)[C@H](CC(C)C)NC(=O)[C@H](C)NC(=O)[C@H](CCCCN)NC(=O)[C@H](CC(C)C)NC(=O)[C@H](CC(N)=O)NC(=O)[C@@H](NC(=O)[C@H](CCCCN)NC(=O)CNC(=O)[C@H](CC(C)C)NC(=O)[C@H](CC(C)C)NC(=O)[C@H](Cc1ccc(O)cc1)NC(=O)CNC(=O)[C@H](C)NC(=O)[C@@H](N)CSSC[C@H](NC(=O)c1cn2c3c(c(N4CCN(C)CC4)c(F)cc3c1=O)OC[C@@H]2C)C(=O)O)[C@@H](C)CC)C(=O)N[C@@H](CC(C)C)C(N)=O` [Compound 5, LVXC-S-S-CTP10-NH2] came in with an MIC50 of 12.5 µM (≈ 34.3 µg/mL).

Take `CC[C@H](C)[C@H](NC(=O)[C@H](CCCCN)NC(=O)[C@H](CCCCN)NC(=O)[C@H](C)NC(=O)[C@H](CC(C)C)NC(=O)[C@H](C)NC(=O)[C@H](C)NC(=O)[C@H](CC(C)C)NC(=O)[C@H](C)NC(=O)[C@H](CCCCN)NC(=O)[C@H](CC(C)C)NC(=O)[C@H](CC(N)=O)NC(=O)[C@@H](NC(=O)[C@H](CCCCN)NC(=O)CNC(=O)[C@H](CC(C)C)NC(=O)[C@H](CC(C)C)NC(=O)[C@H](Cc1ccc(O)cc1)NC(=O)CNC(=O)[C@H](C)NC(=O)[C@@H](N)CSSC[C@H](N)C(=O)N1CCN(c2cc3c(cc2F)c(=O)c(C(=O)O)cn3C2CC2)CC1)[C@@H](C)CC)C(=O)N[C@@H](CC(C)C)C(N)=O` [Compound 6, CIPC-S-S-CTP10-NH2]: the MIC50 is 25 µM (≈ 67.9 µg/mL).

`CC[C@H](C)[C@H](NC(=O)[C@H](CCCCN)NC(=O)[C@H](CCCCN)NC(=O)[C@H](C)NC(=O)[C@H](CC(C)C)NC(=O)[C@H](C)NC(=O)[C@H](C)NC(=O)[C@H](CC(C)C)NC(=O)[C@H](C)NC(=O)[C@H](CCCCN)NC(=O)[C@H](CC(C)C)NC(=O)[C@H](CC(N)=O)NC(=O)[C@@H](NC(=O)[C@H](CCCCN)NC(=O)CNC(=O)[C@H](CC(C)C)NC(=O)[C@H](CC(C)C)NC(=O)[C@H](Cc1ccc(O)cc1)NC(=O)CNC(=O)[C@H](C)N)[C@@H](C)CC)C(=O)N[C@@H](CC(C)C)C(N)=O` [TP10-NH2, transportan 10, reference compound] came in with an MIC50 of 100 µM (≈ 218 µg/mL).
